Test results from article PMC6270201, “Eco-Friendly Synthesis and Antiproliferative Evaluation of Some Oxygen Substituted Diaryl Ketones” (Molecules, 2013).

Assays:
[1] = tested on: T24 (bladder) human-derived tumor cell line; assay: MTT reduction antiproliferative assay, T24 bladder cells; type: cell-based; settings: 48 h incubation, mean of at least three experiments, read-out: EC50 ± SEM T24
Method: (§1) The oxygen-substituted diaryl ketones 3–23 were evaluated for their in vitro antiproliferative activity on a panel of four cell lines, including non-tumor fibroblasts (Balb/3T3) and three human-derived tumor cell lines, namely DU-145 (prostate), T24 (bladder) and MCF7 (breast), using the conventional microculture tetrazolium reduction assay.
(§2) These values were calculated from their effects on MTT reduction in three cancer cell lines and Balb/3T3 non transformed mouse fibroblasts as a function of their concentration during 48 h of incubation. All three cancer cell lines were similarly sensitive to these compounds. […] The biological activity differences of compounds 12 and 22 with respect to their analogues could be attributed to the 3,4,5-trimethoxy substitution on the A-phenyl ring. According to literature precedents, the 3,4,5-trimethoxyphenyl ring is considered essential for the antitubulin activity of a broad variety of antimitotic compounds [36, 38, 39, 40, 41, 42, 43, 44, 45]. […] In this context, only compound 22 have a good mean selectivity index (2.45).
(§3) Human cancer cell lines (T24, DU-145, MCF7) were cultured in high-glucose Dulbecco's modified Eagle medium (Gibco, Grand Island, NY, USA) supplemented with 10% foetal calf serum, penicillin (100 U/mL), and streptomycin (100 μg/mL). Balb/3T3 cells (normal mouse fibroblasts) were cultured in the same medium, except that the foetal calf serum was replaced by 10% newborn calf serum. All cultures were kept at 37 °C in 95% air/5% CO2 at 100% humidity. Phosphate-buffered saline (PBS) was purchased from Gibco. Cells were incubated at the indicated times at 37 °C with or without hydroquinones at various concentrations.
(§4) The cytotoxicity of the bis aryl ketones was assessed by following the reduction of MTT (3-(4,5-dimethylthiazolyl-2)-2,5-diphenyltetrazolium bromide) to formazan blue. Briefly, cells were seeded into 96-well plates at a density of 10,000 cells/well for 24 h and then incubated for 48 h with or without the compounds. Cells were then washed twice with warm PBS and incubated with MTT (0.5 mg/mL) for 2 h at 37 °C. Incubation medium was thereafter discarded and the blue formazan crystals were solubilized by adding 100 μL DMSO/well. The colour solution was subsequently read at 550 nm. Results are expressed as % of MTT reduction compared to untreated control conditions. The calculation of EC50 values was performed by using GraphPad Prism software (San Diego, CA, USA).

[2] = tested on: DU-145 (prostate) human-derived tumor cell line; assay: MTT reduction antiproliferative assay, DU-145 prostate cells; type: cell-based; settings: 48 h incubation, mean of at least three experiments, read-out: EC50 ± SEM DU-145
Method: as §1, §2, §3, §4

[3] = tested on: MCF7 (breast) human-derived tumor cell line; assay: MTT reduction antiproliferative assay, MCF7 breast cells; type: cell-based; settings: 48 h incubation, mean of at least three experiments, read-out: EC50 ± SEM MCF-7
Method: as §1, §2, §3, §4

[4] = tested on: Balb/3T3 non-tumor fibroblasts; assay: MTT reduction assay, non-tumor fibroblasts; type: cell-based; settings: Mus musculus, 48 h incubation, mean of at least three experiments, read-out: EC50 ± SEM BALB/3T3
Method: as §1, §2, §3, §4

[5] = tested on: Balb/3T3 fibroblasts vs T24, DU-145 and MCF7 tumor cells; assay: Mean selective index, fibroblasts versus tumor cells; type: cell-based; settings: EC50 values fibroblasts/EC50 values tumor cells
Method: These values were calculated from their effects on MTT reduction in three cancer cell lines and Balb/3T3 non transformed mouse fibroblasts as a function of their concentration during 48 h of incubation.

[6] = tested on: NCI screen panel; parameters: method as in PMID 9572894; settings: read-out: mean panel GI50 (growth inhibitory) value; cited from earlier work

Structure (SMILES)	EC50 [1] [µM]	EC50 [2] [µM]	EC50 [3] [µM]	melting point [°C]	EC50 [4] [µM]	MSI: Mean Selective Index [5]	GI50 [6] [µM]
COc1cccc2c1C(=O)c1c(O)c3c(c(O)c1C2=O)C[C@@](O)(C(=O)CO)C[C@@H]3O[C@H]1C[C@H](N)[C@H](O)[C@H](C)O1 [DOX, doxorubicin, reference compound]	0.65 ± 0.07	0.42 ± 0.03	0.33 ± 0.05	–	0.19 ± 0.01	0.44	–
CO[C@@]12[C@H](COC(N)=O)C3=C(C(=O)C(C)=C(N)C3=O)N1C[C@@H]1N[C@@H]12 [MIT, mitomycin C, reference compound]	42.2 ± 5.8	14.3 ± 2.6	16.8 ± 2.9	–	27.3 ± 3.3	–	–
Cc1ccc(C(=O)c2cc(O)ccc2O)cc1 [compound 6, (2,5-Dihydroxyphenyl)(4'-methylphenyl)methanone]	209 ± 19.5	101 ± 9.5	142 ± 15.3	135 to 136	78.3 ± 6.4	0.57	–
COc1ccc(C(=O)c2cc(O)ccc2O)cc1OC [compound 10, (2,5-Dihydroxyphenyl)(3,4-dimethoxyphenyl)methanone]	147 ± 19.2	140 ± 13.6	183 ± 17.7	79 to 81	35.4 ± 4.7	0.23	–
COc1cc(C(=O)c2cc(O)ccc2O)ccc1O [compound 11, (2,5-Dihydroxyphenyl)(4'-hydroxy-3'-methoxyphenyl)methanone]	154 ± 14.5	168 ± 15.9	177 ± 19.4	221 to 222	78 ± 9.3	0.47	–
COc1cc(C(=O)c2cc(O)ccc2O)cc(OC)c1OC [compound 12, (2,5-Dihydroxyphenyl)(3',4',5'-trimethoxyphenyl)methanone]	3.6 ± 1.4	1.2 ± 0.6	53.6 ± 6.7	68 to 70	1.5 ± 0.4	0.57	–
COc1cc(C(=O)c2cc(O)ccc2O)cc(OC)c1O [compound 13, (2,5-Dihydroxyphenyl)(4'-hydroxy-3',5'-dimethoxyphenyl)methanone]	> 350	113 ± 10.7	> 350	200 to 201	19.1 ± 3.1	–	–
Cc1ccccc1C(=O)c1cc(O)c2ccccc2c1O [compound 14, (1,4-Dihydroxynaphthalen-2-yl)(2'-methylphenyl)methanone]	143 ± 9.5	144 ± 17.7	152 ± 14.5	132 to 133	226 ± 25.4	1.54	–
Cc1ccc(C(=O)c2cc(O)c3ccccc3c2O)cc1 [compound 16, (1,4-Dihydroxynaphthalen-2-yl)(4'-methylphenyl)methanone]	135 ± 12.8	158 ± 13.7	134 ± 14.9	150 to 151	139 ± 15.2	0.98	–
COc1cc(C(=O)c2cc(O)c3ccccc3c2O)cc(OC)c1OC [compound 22, (1,4-Dihydroxynaphthalen-2-yl)(3',4',5'-trimethoxyphenyl)methanone]	13.5 ± 1.9	5.9 ± 0.8	20.2 ± 4.5	189 to 191	25.1 ± 3.9	2.45	–
COc1ccc(C(=O)c2cc(OC)c(OC)c(OC)c2)cc1O [phenstatin]	–	–	–	–	–	–	0.0601

Continued, in another order:

EC50 [1] [µM]	EC50 [2] [µM]	EC50 [3] [µM]	melting point [°C]	Structure (SMILES)	EC50 [4] [µM]	MSI: Mean Selective Index [5]	GI50 [6] [µM]
186 ± 20.4	205 ± 21.5	190 ± 19.2	121 to 122	O=C(c1ccccc1)c1cc(O)ccc1O [compound 3, (2,5-Dihydroxyphenyl)(phenyl)methanone]	38.5 ± 5.5	0.20	–
172 ± 13.2	172 ± 19.7	181 ± 15.8	104 to 105	Cc1ccccc1C(=O)c1cc(O)ccc1O [compound 4, (2,5-Dihydroxyphenyl)(2'-methylphenyl)methanone]	184 ± 17.6	1.06	–
202 ± 15.9	186 ± 17.8	226 ± 24.2	119 to 120	Cc1cccc(C(=O)c2cc(O)ccc2O)c1 [compound 5, (2,5-Dihydroxyphenyl)(3'-methylphenyl)methanone]	100 ± 9.5	0.49	–
210 ± 20.5	166 ± 15.8	154 ± 12.3	97 to 98	COc1cccc(C(=O)c2cc(O)ccc2O)c1 [compound 7, (2,5-Dihydroxyphenyl)(3'-methoxyphenyl)methanone]	118 ± 19.5	0.68	–
168 ± 12.2	170 ± 15.5	191 ± 17.5	144 to 145	COc1ccc(C(=O)c2cc(O)ccc2O)cc1 [compound 8, (2,5-Dihydroxyphenyl)(4'-methoxyphenyl)methanone]	85.2 ± 9.7	0.49	–
150 ± 18.4	130 ± 12.5	164 ± 13.8	135 to 136	COc1ccc(OC)c(C(=O)c2cc(O)ccc2O)c1 [compound 9, (2,5-Dihydroxyphenyl)(2',5'-dimethoxyphenyl)methanone]	43.7 ± 7.6	0.29	–
137 ± 11.7	147 ± 15.9	145 ± 12.7	154 to 155	Cc1cccc(C(=O)c2cc(O)c3ccccc3c2O)c1 [compound 15, (1,4-Dihydroxynaphthalen-2-yl)(3'-methylphenyl)methanone]	142 ± 13.9	0.99	–
133 ± 12.4	139 ± 11.3	128 ± 13.6	149 to 150	COc1cccc(C(=O)c2cc(O)c3ccccc3c2O)c1 [compound 17, (1,4-Dihydroxynaphthalen-2-yl)(3'-methoxyphenyl)methanone]	109 ± 11.1	0.82	–
127 ± 10.6	77.5 ± 6.5	125 ± 10.2	150 to 151	COc1ccc(C(=O)c2cc(O)c3ccccc3c2O)cc1 [compound 18, (1,4-Dihydroxynaphthalen-2-yl)(4'-methoxyphenyl)methanone]	107 ± 12.3	1.03	–
130 ± 10.1	129 ± 17.2	> 310	160 to 161	COc1ccc(OC)c(C(=O)c2cc(O)c3ccccc3c2O)c1 [compound 19, (1,4-Dihydroxynaphthalen-2-yl)(2',5'-dimethoxyphenyl)methanone]	100 ± 8.9	0.77	–
46.8 ± 5.1	61.8 ± 5.6	12.2 ± 3.8	212 to 213	COc1ccc(C(=O)c2cc(O)c3ccccc3c2O)cc1OC [compound 20, (1,4-Dihydroxynaphthalen-2-yl)(3',4'-dimethoxyphenyl)methanone]	2.8 ± 0.6	0.11	–
86.6 ± 9.6	89 ± 7.3	15.7 ± 4.6	221 to 222	COc1cc(C(=O)c2cc(O)c3ccccc3c2O)ccc1O [compound 21, (1,4-Dihydroxynaphthalen-2-yl)(4'-hydroxy-3'-methoxyphenyl)methanone]	15.7 ± 3.9	0.45	–
112 ± 9.3	114 ± 9.5	130 ± 14.8	173 to 174	COc1cc(C(=O)c2cc(O)c3ccccc3c2O)cc(OC)c1O [compound 23, (1,4-Dihydroxynaphthalen-2-yl)(4'-hydroxy-3',5'-dimethoxyphenyl)methanone]	99.6 ± 7.5	0.84	–
